For this assay, the target named is T1, Human PIP4K2C (Homo sapiens, UniProt Q8TBX8).
T1 construct: purchased Eurofins DiscoverX 87-0007-1094
T1 sequence (Q8TBX8 1-421): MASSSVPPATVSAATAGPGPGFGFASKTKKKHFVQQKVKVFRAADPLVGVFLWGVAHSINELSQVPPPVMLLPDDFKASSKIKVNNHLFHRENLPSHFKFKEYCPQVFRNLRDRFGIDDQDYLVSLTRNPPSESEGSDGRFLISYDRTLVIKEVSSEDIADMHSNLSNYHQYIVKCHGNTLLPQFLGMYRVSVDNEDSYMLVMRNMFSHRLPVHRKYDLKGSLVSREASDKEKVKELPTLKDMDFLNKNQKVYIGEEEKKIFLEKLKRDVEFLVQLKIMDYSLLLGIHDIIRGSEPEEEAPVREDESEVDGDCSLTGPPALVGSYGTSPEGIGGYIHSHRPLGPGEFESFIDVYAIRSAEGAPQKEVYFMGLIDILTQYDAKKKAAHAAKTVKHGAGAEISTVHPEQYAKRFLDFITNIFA
In words: Enzyme binding assay (KINOMEscan), active site-directed competition binding. The following applies: 11-point dose response, duplicate, top concentration 5 micromolar; read-out: Pip4k2c Kd: IC50. How it is done:
PIP4K2C binding constants disclosed herein were determined using the proprietary Human PIP4K2C binding assay (Catalog number 87-0007-1094, Eurofins DiscoverX, San Diego, CA). This assay measures active site-directed competition binding to an immobilized ligand (see https://doi.org/10.1038/nbt1068, herein incorporated by reference in its entirety). Experiments were conducted using an 11-point dose response curve, in duplicate, with a top starting concentration of 5 micromolar; the Levenberg-Marquardt algorithm was used to fit a Hill equation to dose-response data to calculate IC50 values (see Table 5).
As usually defined, the IC50 is the concentration that gives 50% inhibition. For `O=C1CCCN1c1cncc(Nc2ncc(Cl)c(N3CCC(c4ccccc4)C3)n2)c1` (stereo not shown) [Compound 42, 1-(5-((5-chloro-4-(3-phenylpyrrolidin-1-yl)pyrimidin-2-yl)amino)pyridin-3-yl)pyrrolidin-2-one], the IC50 is < 500 nM.
With `O=C1CCCN1c1cncc(Nc2ncc(Cl)c(N3CCC[C@@H](c4ccccc4)C3)n2)c1` [Compound 43, (S)-1-(5-((5-chloro-4-(3-phenylpiperidin-1-yl)pyrimidin-2-yl)amino)pyridin-3-yl)pyrrolidin-2-one] the figure was < 500 nM; with `O=C1CCCN1c1cncc(Nc2ncc(Cl)c(N3CCC[C@H](c4ccccc4)C3)n2)c1` [Compound 44, (R)-1-(5-((5-chloro-4-(3-phenylpiperidin-1-yl)pyrimidin-2-yl)amino)pyridin-3yl)pyrrolidin-2-one], < 500 nM.
With `O=C1CCCN1c1cncc(Nc2ncc(Cl)c(N3CCC(C4CCCCC4)C3)n2)c1` (stereo not shown) [Compound 45, 1-(5-((5-chloro-4-(3-cyclohexylpyrrolidin-1-yl)pyrimidin-2-yl)amino)pyridin-3-yl)pyrrolidin-2-one] the figure was 500 to 1000 nM; with `O=C1CCCN1c1cncc(Nc2ncc(Cl)c(-c3cccc(N4CCCC4)c3)n2)c1` [Compound 46, 1-(5-((5-chloro-4-(3-(pyrrolidin-1-yl)phenyl)pyrimidin-2-yl)amino)pyridin-3-yl)pyrrolidin-2-one], < 500 nM; with `CN1CCC(n2cc(-c3nc(Nc4cncc(N5CCCC5=O)c4)ncc3Cl)cn2)CC1` [Compound 47, 1-(5-((5-chloro-4-(1-(1-methylpiperidin-4-yl)-1H-pyrazol-4-yl)pyrimidin-2-yl)amino)pyridin-3-yl)pyrrolidin-2-one], < 500 nM.
With `CC(=O)N1CCC(n2cc(-c3nc(Nc4cncc(N5CCCC5=O)c4)ncc3Cl)cn2)CC1` [Compound 48, 1-(5-((4-(1-(1-acetylpiperidin-4-yl)-1H-pyrazol-4-yl)-5-chloropyrimidin-2-yl)amino)pyridin-3-yl)pyrrolidin-2-one] the figure was < 500 nM; with `O=C1CCCN1c1cncc(Nc2ncc(Cl)c(-c3cc(-c4ccccc4)[nH]n3)n2)c1` [Compound 49, 1-(5-((5-chloro-4-(5-phenyl-1H-pyrazol-3-yl)pyrimidin-2-yl)amino)pyridin-3-yl)pyrrolidin-2-one], < 500 nM; with `O=C1CCCN1c1cncc(Nc2ncc(Cl)c(-c3cc(C4CC4)[nH]n3)n2)c1` [Compound 50, 1-(5-((5-chloro-4-(5-cyclopropyl-1H-pyrazol-3-yl)pyrimidin-2-yl)amino)pyridin-3-yl)pyrrolidin-2-one], < 500 nM.
Turning to `Cn1cc(-c2nc(Nc3cncc(N4CCCC4=O)c3)ncc2Cl)cn1` [Compound 90, 1-(5-((5-chloro-4-(1-methyl-1H-pyrazol-4-yl)pyrimidin-2-yl)amino)pyridin-3-yl)pyrrolidin-2-one], the IC50 is < 500 nM.
For `O=C1CCCN1c1cncc(Nc2ncc(Cl)c(-c3cccc(Cl)c3)n2)c1` [Compound 92, 1-(5-((5-chloro-4-(3-chlorophenyl)pyrimidin-2-yl)amino)pyridin-3-yl)pyrrolidin-2-one], the IC50 is < 500 nM.
With `O=C1CCCN1c1cncc(Nc2ncc(Cl)c(-c3ccc(Cl)cc3)n2)c1` [Compound 93, 1-(5-((5-chloro-4-(4-chlorophenyl)pyrimidin-2-yl)amino)pyridin-3-yl)pyrrolidin-2-one] the figure was < 500 nM; with `Cc1ccc(-c2nc(Nc3cncc(N4CCCC4=O)c3)ncc2Cl)cc1` [Compound 94, 1-(5-((5-chloro-4-(p-tolyl)pyrimidin-2-yl)amino)pyridin-3-yl)pyrrolidin-2-one], < 500 nM; with `O=C1CCCN1c1cncc(Nc2ncc(Cl)c(-c3ccccc3Cl)n2)c1` [Compound 95, 1-(5-((5-chloro-4-(2-chlorophenyl)pyrimidin-2-yl)amino)pyridin-3-yl)pyrrolidin-2-one], < 500 nM.
Turning to `O=C1CCCN1c1cncc(Nc2ncc(Cl)c(N3CCCCC3)n2)c1` [Compound 96, 1-(5-((5-chloro-4-(piperidin-1-yl)pyrimidin-2-yl)amino)pyridin-3-yl)pyrrolidin-2-one], the IC50 is < 500 nM.
With `O=C1CCCN1c1cncc(Nc2ncc(Cl)c(C3CCCCC3)n2)c1` [Compound 97, 1-(5-((5-chloro-4-cyclohexylpyrimidin-2-yl)amino)pyridin-3-yl)pyrrolidin-2-one] the figure was < 500 nM; with `CC(C)c1cccc(-c2nc(Nc3cncc(N4CCCC4=O)c3)ncc2Cl)c1` [Compound 98, 1-(5-((5-chloro-4-(3-isopropylphenyl)pyrimidin-2-yl)amino)pyridin-3-yl)pyrrolidin-2-one], < 500 nM.
As for `O=C1CCCN1c1cncc(Nc2ncc(Cl)c(N3CCCC(O)C3)n2)c1` (stereo not shown) [Compound 99], the figure is < 500 nM; as for `CC1CCCN(c2nc(Nc3cncc(N4CCCC4=O)c3)ncc2Cl)C1` (stereo not shown) [Compound 100, 1-(5-((5-chloro-4-(3-methylpiperidin-1-yl)pyrimidin-2-yl)amino)pyridin-3-yl)pyrrolidin-2-one], < 500 nM; as for `O=C1CCCN1c1cncc(Nc2ncc(Cl)c(N3CCCC(C(F)(F)F)C3)n2)c1` (stereo not shown) [Compound 101, 1-(5-((5-chloro-4-(3-(trifluoromethyl)piperidin-1-yl)pyrimidin-2-yl)amino)pyridin-3-yl)pyrrolidin-2-one], < 500 nM.
As for `CC1CCN(c2nc(Nc3cncc(N4CCCC4=O)c3)ncc2Cl)CC1` [Compound 102, 1-(5-((5-chloro-4-(4-methylpiperidin-1yl)pyrimidin-2-yl)amino)pyridin-3-yl)pyrrolidin-2-one], the figure is < 500 nM; as for `O=C1CCCN1c1cncc(Nc2cc(-c3ccc(F)cc3)c(Cl)cn2)c1` [Compound 103, 1-(5-((5-chloro-4-(4-fluorophenyl)pyridin-2-yl)amino)pyridin-3-yl)pyrrolidin-2-one], < 500 nM.
On to `O=C1CCCN1c1cncc(Nc2cc(-c3ccc(F)cc3F)c(Cl)cn2)c1` [Compound 104, 1-(5-((5-chloro-4-(2,4-difluorophenyl)pyridin-2-yl)amino)pyridin-3-yl)pyrrolidin-2-one], for which the IC50 is 500 to 1000 nM.
For the compound `Cc1cc(-c2nc(Nc3cncc(N4CCCC4=O)c3)ncc2Cl)ccn1` [Compound 105, 1-(5-((5-chloro-4-(2-methylpyridin-4-yl)pyrimidin-2-yl)amino)pyridin-3-yl)pyrrolidin-2-one], the IC50 was 500 to 1000 nM.
As for `CC1CCCCN1c1nc(Nc2cncc(N3CCCC3=O)c2)ncc1Cl` (stereo not shown) [Compound 106, 1-(5-((5-chloro-4-(2-methylpiperidin-1-yl)pyrimidin-2-yl)amino)pyridin-3-yl)pyrrolidin-2-one], the figure is < 500 nM; as for `O=C1CCCN1c1cncc(Nc2ncc(Cl)c(N3CCOCC3)n2)c1` [Compound 107, 1-(5-((5-chloro-4-morpholinopyrimidin-2-yl)amino)pyridin-3-yl)pyrrolidin-2-one], < 500 nM; as for `O=C1CCCN1c1cncc(Nc2ncc(Cl)c(-c3ccc(F)cc3F)n2)c1` [Compound 108, 1-(5-((5-chloro-4-(2,4-difluorophenyl)pyrimidin-2-yl)amino)pyridin-3-yl)pyrrolidin-2-one], < 500 nM.
For the compound `CCCCNC(=O)C1CCCN(c2nc(Nc3cncc(N4CCCC4=O)c3)ncc2Cl)C1` (stereo not shown) [Compound 109, N-butyl-1-(5-chloro-2-((5-(2-oxopyrrolidin-1-yl)pyridin-3-yl)amino)pyrimidin-4-yl)piperidine-3-carboxamide], the IC50 is < 500 nM.
Consider `CCCCC(=O)NC1CCCN(c2nc(Nc3cncc(N4CCCC4=O)c3)ncc2Cl)C1` (stereo not shown) [Compound 110, N-(1-(5-chloro-2-((5-(2-oxopyrrolidin-1-yl)pyridin-3-yl)amino)pyrimidin-4-yl)piperidin-3-yl)pentanamide], for which the IC50 is < 500 nM.
As for `CC(C)c1cc(-c2nc(Nc3cncc(N4CCCC4=O)c3)ncc2Cl)ccn1` [Compound 111, 1-(5-((5-chloro-4-(2-isopropylpyridin-4-yl)pyrimidin-2-yl)amino)pyridin-3-yl)pyrrolidin-2-one], the figure is < 500 nM; as for `O=C1CCCN1c1cncc(Nc2ncc(Cl)c(-c3ccc(F)cc3Cl)n2)c1` [Compound 112, 1-(5-((5-chloro-4-(2-chloro-4-fluorophenyl)pyrimidin-2-yl)amino)pyridin-3-yl)pyrrolidin-2-one], < 500 nM; as for `Cc1cc(F)ccc1-c1nc(Nc2cncc(N3CCCC3=O)c2)ncc1Cl` [Compound 113, 1-(5-((5-chloro-4-(4-fluoro-2methylphenyl)pyrimidin-2-yl)amino)pyridin-3-yl)pyrrolidin-2-one], < 500 nM.
As for `CC1CN(c2nc(Nc3cncc(N4CCCC4=O)c3)ncc2Cl)CC(C)O1` (stereo not shown) [Compound 114, 1-(5-((5-chloro-4-(2,6-dimethylmorpholino)pyrimidin-2-yl)amino)pyridin-3-yl)pyrrolidin-2-one], the figure is < 500 nM; as for `CC1CC(C)CN(c2nc(Nc3cncc(N4CCCC4=O)c3)ncc2Cl)C1` (stereo not shown) [Compound 115, 1-(5-((5-chloro-4-(3,5-dimethylpiperidin-1-yl)pyrimidin-2-yl)amino)pyridin-3-yl)pyrrolidin-2-one], < 500 nM.

(Values after patent publication US20260184691A1, “INHIBITORS AND DEGRADERS OF PIP4K PROTEIN” (Larkspur Biosciences, Inc., priority 2022, published 2026).)
